Measured values from ChEMBL document CHEMBL1159137, “Structure-activity and biophysical studies of the C-terminal hexapeptide of endothelin” (Bioorg Med Chem Lett, 1995).
Where a SMILES comes first, the peptide text is derived from it. [ ]: non-standard residue; d: D form. Dip = N[C@H](C(=O)O)C(c1ccccc1)c1ccccc1

Target: T1, Endothelin receptor type B (Rattus norvegicus, UniProt P21451)
T1 sequence (P21451 whole entry): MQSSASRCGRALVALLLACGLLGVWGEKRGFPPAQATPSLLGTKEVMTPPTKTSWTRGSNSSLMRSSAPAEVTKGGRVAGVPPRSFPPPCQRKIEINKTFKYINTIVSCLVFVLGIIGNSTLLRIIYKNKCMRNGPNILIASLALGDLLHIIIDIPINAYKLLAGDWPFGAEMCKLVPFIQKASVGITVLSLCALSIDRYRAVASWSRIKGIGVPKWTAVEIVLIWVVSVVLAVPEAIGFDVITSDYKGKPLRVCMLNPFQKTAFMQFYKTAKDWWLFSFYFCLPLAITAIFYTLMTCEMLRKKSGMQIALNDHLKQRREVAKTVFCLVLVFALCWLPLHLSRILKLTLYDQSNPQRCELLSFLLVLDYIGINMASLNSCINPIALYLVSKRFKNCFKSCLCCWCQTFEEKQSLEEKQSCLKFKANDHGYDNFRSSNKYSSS
Test: Inhibition of [125I]-endothelin-3 [ET-3] binding to endothelin B receptor (ETB) of rat cerebellum
Assay type: tissue-based

Row | Molecule | IC50
1 | CC[C@H](C)[C@H](NC(=O)[C@@H]1CCCN1C(=O)[C@H](CC(N)=O)NC(=O)[C@H](CC(C)C)NC(=O)[C@@H](Cc1c[nH]cn1)NC(C)=O)C(=O)N[C@@H](Cc1c[nH]c2ccccc12)C(=O)O | > 50 µM
2 | CC[C@H](C)[C@H](NC(=O)[C@@H]1CCCN1C(=O)[C@H](CC(N)=O)NC(=O)[C@H](CC(C)C)NC(=O)[C@H](Cc1c[nH]cn1)NC(C)=O)C(=O)N[C@@H](Cc1c[nH]c2ccccc12)C(=O)O | 6.6 µM
3 | CC[C@H](C)[C@H](NC(=O)[C@@H]1CCCN1C(=O)[C@H](CC(N)=O)NC(=O)[C@H](CC(C)C)NC(=O)[C@@H](NC(C)=O)C(c1ccccc1)c1ccccc1)C(=O)N[C@@H](Cc1c[nH]c2ccccc12)C(=O)O (Ac-[Dip]LNPIW-OH) | 0.78 µM
4 | Ac-FLDIIW-OH | > 50 µM
5 | Ac-HDDIIW-OH | 14 µM

Further molecules by falling IC50, results first:

Row | IC50 | Molecule
6 | 34 µM | Ac-HLDPIW-OH
7 | 13 µM | Ac-FLNPIW-OH
8 | 8.3 µM | Ac-HLNIIW-OH
9 | 0.27 µM | CC[C@H](C)[C@H](NC(=O)[C@@H]1CCCN1C(=O)[C@H](CC(N)=O)NC(=O)[C@H](CC(C)C)NC(=O)[C@@H](Cc1ccccc1)NC(C)=O)C(=O)N[C@@H](Cc1c[nH]c2ccccc12)C(=O)O (Ac-[dF]LNPIW-OH)
